In brackets after ≈: the same amount, converted by molar mass. Like-named read-outs stand apart in the source and are kept apart here. Numbered stars: 1 amine (or outer) side, 2 acyl side, 3 side chain; on linkers, the order of the positions; unused ones are H or OH. Bridge positions count the residues as written; N and C are the ends. Square brackets hold non-standard residues; d marks the D form. Peptide text beside a SMILES is read from it. I, II: the chains in the order shown. Actinocin(9to1) = Cc1c2oc3c(C)ccc(C(=O)[*:1])c3nc-2c(C(=O)[*:2])c(N)c1=O; NMeV = CN[C@H](C(=O)O)C(C)C; Sar = CNCC(=O)O

The subject of experiment [1] is Bacillus subtilis. The experiment is described as follows: Comparative antibacterial activity (MIC), agar dilution method, measured simultaneously. The class given is cell-based. The settings on record: for MIC: read-out: Antibacterial activity [B] (minimum inhibition concentration, MIC). The protocol: (§1) A comparative study of XK-99 with these antibiotics was conducted according to several procedures.
(§2) ^1 Antibacterial activities (minimum inhibition concentration, MIC,
(§3) γ/ml) of the individual antibiotics measured simultaneously
according to agar dilution method against [A] Staphylococcus aureus and
[B]Bacillus subtilis, and [C] ratio of [A] to
^2 Rf values of the individual antibiotics on paper chromatography, […]
In general terms: In agar dilution, organisms are placed on agar that contains the substance at set levels.

In experiment [2] the test system is Staphylococcus aureus. Described as above. The note with it: for Antibacterial activity [C], ratio of [A] to [B]: MIC Staphylococcus aureus / MIC Bacillus subtilis; for Antibacterial activity [A] (minimum inhibition concentration, MIC) / MIC: Staphylococcus aureus; for MIC: read-out: Antibacterial activity [A] (minimum inhibition concentration, MIC). The class given is cell-based. The protocol: as §1, §2, §3
according to agar dilution method against [A] Staphylococcus aureus and […]

The mark [3] stands for this setting: agar dilution method, measured simultaneously.

Regarding `CO[C@H]1/C=C/O[C@@]2(C)Oc3c(C)c(O)c4c(c3C2=O)C(=O)C=C(NC(=O)/C(C)=C\C=C\[C@H](C)[C@H](O)[C@@H](C)[C@@H](O)[C@@H](C)[C@H](OC(C)=O)[C@@H]1C)C4=O` [Rifamycin S], the “Antibacterial activity [B] (minimum inhibition concentration, MIC)” value in experiment [1] (setting [3]) was 0.09 µg/mL. The “Antibacterial activity [C], ratio of [A] to [B]” value in experiment [2] is under 0.05. Further, in experiment [2] (setting [3]), the “Antibacterial activity [A] (minimum inhibition concentration, MIC)” value is under 0.0045 µg/mL.

For the molecule Acrasinomycin, the “Antibacterial activity [B] (minimum inhibition concentration, MIC)” value in experiment [1] (setting [3]) is 0.17 µg/mL. Besides, in experiment [2], the “Antibacterial activity [C], ratio of [A] to [B]” value was 4. Further, the “Antibacterial activity [A] (minimum inhibition concentration, MIC)” value in experiment [2] (setting [3]) worked out at 0.68 µg/mL.

With `COc1cccc2c1C(=O)c1c(O)c3c(c(O)c1C2=O)C[C@@](O)(C(=O)CO)C[C@@H]3O[C@H]1C[C@H](N)[C@H](O)[C@H](C)O1` [Adriamycin], the MIC in experiment [1] (setting [3]) came to 0.7 µg/mL (≈ 1.29 µM); in experiment [2] (setting [3]) it was 5.6 µg/mL (≈ 10.3 µM). For the same molecule, the “Antibacterial activity [C], ratio of [A] to [B]” value in experiment [2] was found to be 8.

Turning to `Cc1c2oc3c(C)ccc(C(=O)N[C@@H]4C(=O)N[C@H](C(C)C)C(=O)N5CCC[C@H]5C(=O)N(C)CC(=O)N(C)[C@@H](C(C)C)C(=O)O[C@@H]4C)c3nc-2c(C(=O)N[C@@H]2C(=O)N[C@H](C(C)C)C(=O)N3CCC[C@H]3C(=O)N(C)CC(=O)N(C)[C@@H](C(C)C)C(=O)O[C@@H]2C)c(N)c1=O` [Actinomycin D] (I: T[dV]P[Sar][NMeV] / II: T[dV]P[Sar][NMeV]; ester I:1-I:C, II:1-II:C; linker I:N-II:N via Actinocin(9to1)), in experiment [1], the MIC was found to be 0.021 µg/mL (≈ 0.0167 µM). For the same molecule, in experiment [2], the “Antibacterial activity [C], ratio of [A] to [B]” value is on record as 4 and the MIC was 0.084 µg/mL (≈ 0.0669 µM).

Take `COc1cccc2c1C(=O)c1c(O)c3c(c(O)c1C2=O)C[C@@](O)(C(C)=O)C[C@@H]3O[C@H]1C[C@H](N)[C@H](O)[C@H](C)O1` [Daunomycin]: the MIC was 0.7 µg/mL (≈ 1.33 µM) in experiment [1] (setting [3]) and 2.8 µg/mL (≈ 5.31 µM) in experiment [2] (setting [3]). In addition, the “Antibacterial activity [C], ratio of [A] to [B]” value in experiment [2] is 4.

Turning to Halomicin B, the “Antibacterial activity [B] (minimum inhibition concentration, MIC)” value in experiment [1] (setting [3]) came out at 0.09 µg/mL. In addition, the “Antibacterial activity [C], ratio of [A] to [B]” value in experiment [2] is recorded as under 0.05. Further, the “Antibacterial activity [A] (minimum inhibition concentration, MIC)” value in experiment [2] (setting [3]) is under 0.0045 µg/mL.

Source of the values: patent US4162305A, “Antibiotic XK-99 and process for production thereof” (Abbott Laboratories, priority 1977, dated 1979).
